According to ChEMBL document CHEMBL2073917, “Polymethoxylated flavones in orange juice are inhibitors of P-glycoprotein but not cytochrome P450 3A4” (J Pharmacol Exp Ther, 2000):
Blank lines part the entries; values can stand above or below the compound they belong to.

Legend:
Assay type in all cases: functional, cell-based
Conditions in all cases: pig, llc-pk1, 20 µM
[1] = molecular target: T1, ATP-dependent translocase ABCB1 (Homo sapiens, UniProt P08183); assay: TP_TRANSPORTER: increase in Vinblastine uptake (Vinblastine: 0.02 uM, HMF: 20 uM) in MDR1-expressing LLC-PK1 cells
T1 sequence (P08183 whole entry): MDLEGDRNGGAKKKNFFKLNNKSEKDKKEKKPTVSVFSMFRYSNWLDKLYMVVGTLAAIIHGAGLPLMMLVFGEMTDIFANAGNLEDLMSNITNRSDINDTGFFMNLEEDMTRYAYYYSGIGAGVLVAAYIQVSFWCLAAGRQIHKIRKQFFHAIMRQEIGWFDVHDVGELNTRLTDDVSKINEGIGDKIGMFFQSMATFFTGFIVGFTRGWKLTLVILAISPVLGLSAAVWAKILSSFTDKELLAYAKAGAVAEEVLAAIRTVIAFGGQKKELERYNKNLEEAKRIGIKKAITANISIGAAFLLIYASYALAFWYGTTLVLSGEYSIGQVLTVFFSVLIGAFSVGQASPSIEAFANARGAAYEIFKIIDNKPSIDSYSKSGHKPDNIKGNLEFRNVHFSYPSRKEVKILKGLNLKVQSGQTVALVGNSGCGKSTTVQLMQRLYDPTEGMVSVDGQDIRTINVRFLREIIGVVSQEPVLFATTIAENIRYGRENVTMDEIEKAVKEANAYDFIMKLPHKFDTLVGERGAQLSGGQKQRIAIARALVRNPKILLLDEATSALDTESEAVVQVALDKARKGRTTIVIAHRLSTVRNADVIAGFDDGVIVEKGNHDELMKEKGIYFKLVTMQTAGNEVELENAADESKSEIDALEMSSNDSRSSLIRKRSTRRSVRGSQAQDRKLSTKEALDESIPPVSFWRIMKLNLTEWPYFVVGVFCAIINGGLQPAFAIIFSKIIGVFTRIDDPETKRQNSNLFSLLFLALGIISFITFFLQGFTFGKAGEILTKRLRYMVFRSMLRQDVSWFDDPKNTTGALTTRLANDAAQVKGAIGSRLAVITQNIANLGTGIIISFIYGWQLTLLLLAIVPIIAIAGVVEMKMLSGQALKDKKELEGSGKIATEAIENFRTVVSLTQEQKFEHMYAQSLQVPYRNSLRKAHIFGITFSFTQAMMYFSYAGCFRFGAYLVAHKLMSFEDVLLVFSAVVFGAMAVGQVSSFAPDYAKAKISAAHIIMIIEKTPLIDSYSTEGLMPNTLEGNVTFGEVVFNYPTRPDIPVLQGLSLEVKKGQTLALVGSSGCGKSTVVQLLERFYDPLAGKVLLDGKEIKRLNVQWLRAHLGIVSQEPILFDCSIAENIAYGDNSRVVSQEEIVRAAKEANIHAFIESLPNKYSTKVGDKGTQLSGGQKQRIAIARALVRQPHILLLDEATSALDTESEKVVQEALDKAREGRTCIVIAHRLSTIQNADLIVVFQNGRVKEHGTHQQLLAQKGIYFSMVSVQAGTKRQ

[2] = molecular target: T1, ATP-dependent translocase ABCB1; assay: TP_TRANSPORTER: increase in Vinblastine uptake (Vinblastine: 0.02 uM, Nobiletin: 20 uM) in MDR1-expressing LLC-PK1 cells
[3] = molecular target: T1, ATP-dependent translocase ABCB1; assay: TP_TRANSPORTER: increase in Vinblastine uptake (Vinblastine: 0.02 uM, Tangeretin: 20 uM) in MDR1-expressing LLC-PK1 cells

Activity [1]: 935%
SMILES: COc1ccc(-c2oc3c(OC)c(OC)c(OC)c(OC)c3c(=O)c2OC)cc1OC [3,5,6,7,8,3',4'-HEPTAMETHOXYFLAVONE]

Activity [2]: 604%
SMILES: COc1ccc(-c2cc(=O)c3c(OC)c(OC)c(OC)c(OC)c3o2)cc1OC [NOBILETIN]

Activity [3]: 175%
SMILES: COc1ccc(-c2cc(=O)c3c(OC)c(OC)c(OC)c(OC)c3o2)cc1 [TANGERETIN]
